Experimental data from patent publication US10611747B2, “Pyrone based compounds for treating bacterial infections” (FORGE THERAPEUTICS, INC., priority 2015, dated 2020).
Values after ≈ are worked out from the molar mass of the structure shown. Like-named read-outs stand apart in the source and are kept apart here.

Assays:
Assay in all cases: Bacterial susceptibility testing (MIC, broth microdilution)
Type in all cases: cell-based
E. coli ATCC 25922 = conditions: Escherichia coli
Method: (§1) Minimal inhibitory concentrations (MIC) were determined by the broth microdilution method in accordance with the Clinical and Laboratory Standards Institute (CLSI) guidelines. In brief, organism suspensions were adjusted to a 0.5 McFarland standard to yield a final inoculum between 3×10^5 and 7×10^5 colony-forming units (CFU)/mL. Drug dilutions and inocula were made in sterile, cation adjusted Mueller-Hinton Broth (Beckton Dickinson). An inoculum volume of 100 μL was added to wells containing 100 μL of broth with 2-fold serial dilutions of drug. All inoculated microdilution trays were incubated in ambient air at 35° C. for 18-24 h. […] Performance of the assay was monitored by the use of laboratory quality-control strains and levofloxacin, a compound with a defined MIC spectrum, in accordance with CLSI guidelines.

E. coli BW25113 = conditions: Escherichia coli, no FBS, 35° C., 18-24 h
Method: as §1

E. coli delta tolC = conditions: Escherichia coli, 24 h, read-out: MIC E. coli delta tolC
Method: as §1

E. coli imp mutant = conditions: Escherichia coli, read-out: MIC E. coli imp mutant
Method: as §1

P. aeruginosa 209 = tested on: P. aeruginosa 209
Method: as §1

[1] = tested on: P. aeruginosa 210 delta mexAB-OprM; conditions: Pseudomonas aeruginosa, read-out: MIC P. aeruginosa 210 delta mexAB-OprM
Method: as §1

S. aureus ATCC 29213 = conditions: Staphylococcus aureus
Method: as §1

[2] = ATCC25922, no FBS, broth microdilution, 35° C., 18-24 h, read-out: MIC E. coli ATCC 25922-no FBS
[3] = Pseudomonas aeruginosa, 209, broth microdilution, 35° C., 18-24 h, read-out: MIC P. aeruginosa 209
[4] = ATCC29213, broth microdilution, 35° C., 18-24 h, read-out: MIC S. aureus ATCC 29213
[5] = ATCC25922, read-out: MIC E. coli ATCC 25922-no FBS
[6] = Pseudomonas aeruginosa, 209, read-out: MIC P. aeruginosa 209
[7] = ATCC29213, read-out: MIC S. aureus ATCC 29213

SMILES | MIC (E. coli ATCC 25922; [2]) [µg/mL] | MIC (E. coli BW25113) [µg/mL] | MIC (E. coli delta tolC) [µg/mL] | MIC (E. coli imp mutant) [µg/mL] | MIC (P. aeruginosa 209; [3]) [µg/mL] | MIC [1] [µg/mL] | MIC (S. aureus ATCC 29213; [4]) [µg/mL] | MIC (E. coli ATCC 25922; [5]) [µg/mL] | MIC (P. aeruginosa 209; [6]) [µg/mL] | MIC (S. aureus ATCC 29213; [7]) [µg/mL]
CS(=O)(=O)Cc1cc(=O)c(O)c(CNc2ccc(C#Cc3ccccc3)cc2)o1 [Compound 2, 2-((4-(2-phenylethynyl)phenylamino)methyl)-3-hydroxy-6-((methylsulfonyl)methyl)-4H-pyran-4-one] | > 32 | > 32 | 8 to 32 (≈ 19.5 to 78.2 µM) | > 32 | > 32 | > 32 | > 32 | – | – | –
O=C(c1ccc(C#CC#Cc2ccc(NCc3occc(=O)c3O)cc2)cc1)N1CCCCC1 [Compound 33] | 8 to 32 (≈ 17.7 to 70.7 µM) | 1 to 8 (≈ 2.21 to 17.7 µM) | < 1 | 1 to 8 (≈ 2.21 to 17.7 µM) | > 32 | > 32 | > 32 | – | – | –
CS(=O)(=O)Cc1cc(=O)c(O)c(COc2ccc(C#CC#Cc3ccccc3)cc2)o1 [Compound 11] | – | – | – | – | – | – | – | > 32 | > 32 | 1 to 8 (≈ 2.3 to 18.4 µM)
CN1CC2CN(C(=O)c3ccc(C#CC#Cc4ccc(NCc5occc(=O)c5O)cc4)cc3)C[C@@H]2C1 (stereo partly shown) [Compound 42] | 1 to 8 (≈ 2.03 to 16.2 µM) | 1 to 8 (≈ 2.03 to 16.2 µM) | < 1 | 1 to 8 (≈ 2.03 to 16.2 µM) | > 32 | 8 to 32 (≈ 16.2 to 64.8 µM) | > 32 | – | – | –
CNC(=O)c1ccc(-c2ccc(NCc3oc(CNS(C)(=O)=O)cc(=O)c3O)cc2)cc1 [Compound 1, 4′-(((3-hydroxy-6-(methylsulfonamidomethyl)-1-oxo-4H-pyran-2-yl)methyl)amino)-N-methyl-[1,1′-biphenyl]-4-carboxamide] | > 32 | > 32 | > 32 | > 32 | > 32 | > 32 | > 32 | – | – | –
O=c1cc(CNc2ccc(C#CC#Cc3ccccc3)cc2)occ1O [Compound 30] | > 32 | > 32 | > 32 | 1 to 8 (≈ 2.93 to 23.4 µM) | > 32 | > 32 | 8 to 32 (≈ 23.4 to 93.7 µM) | – | – | –
O=C(c1ccc(C#CC#Cc2ccc(NCc3occc(=O)c3O)cc2)cc1)N1CCNCC1 [Compound 48] | 1 to 8 (≈ 2.21 to 17.6 µM) | 1 to 8 (≈ 2.21 to 17.6 µM) | < 1 | 1 to 8 (≈ 2.21 to 17.6 µM) | > 32 | 8 to 32 (≈ 17.6 to 70.6 µM) | > 32 | – | – | –
CNC(=O)c1ccc(-c2ccc(CCc3oc(CS(C)(=O)=O)cc(=O)c3O)cc2)cc1 [Compound 7, 4′-(2-(3-hydroxy-6-((methylsulfonyl)methyl)-4-oxo-4H-pyran-2-yl)ethyl)-N-methyl-[1,1′-biphenyl]-4-carboxamide] | – | > 32 | > 32 | > 32 | – | > 32 | – | > 32 | > 32 | > 32
O=C(c1ccc(C#CC#Cc2ccc(NCc3occc(=O)c3O)cc2)cc1)N1C[C@H]2C[C@@H]1CO2 [Compound 36] | 8 to 32 (≈ 17.1 to 68.6 µM) | 1 to 8 (≈ 2.14 to 17.1 µM) | < 1 | 1 to 8 (≈ 2.14 to 17.1 µM) | > 32 | > 32 | > 32 | – | – | –
O=C(NCc1cc(=O)c(O)co1)c1ccc(C#Cc2ccccc2)cc1 [Compound 27] | > 32 | > 32 | > 32 | > 32 | > 32 | > 32 | > 32 | – | – | –
CN(C)[C@@H]1CCN(C(=O)c2ccc(C#CC#Cc3ccc(NCc4occc(=O)c4O)cc3)cc2)C1 [Compound 37] | 1 to 8 (≈ 2.08 to 16.6 µM) | 1 to 8 (≈ 2.08 to 16.6 µM) | < 1 | 1 to 8 (≈ 2.08 to 16.6 µM) | > 32 | > 32 | > 32 | – | – | –
N#Cc1ccc(C#Cc2ccc(NCc3occc(=O)c3O)cc2)cc1 [Compound 52] | > 32 | > 32 | > 32 | > 32 | > 32 | > 32 | > 32 | – | – | –
CS(=O)(=O)Cc1cc(=O)c(O)c(COc2ccc(C#Cc3ccccc3)cc2)o1 [Compound 9, 2-((4-(2-phenylethynyl)phenoxy)methyl)-3-hydroxy-6-((methylsulfonyl)methyl)-4H-pyran-4-one] | – | > 32 | 8 to 32 (≈ 19.5 to 78 µM) | 8 to 32 (≈ 19.5 to 78 µM) | – | > 32 | – | > 32 | > 32 | 8 to 32 (≈ 19.5 to 78 µM)
O=C(c1ccc(C#CC#Cc2ccc(NCc3occc(=O)c3O)cc2)cc1)N1CCC[C@H]1CO [Compound 50] | 1 to 8 (≈ 2.13 to 17.1 µM) | 1 to 8 (≈ 2.13 to 17.1 µM) | – | – | – | – | – | – | – | –
CNC(=O)C#CC#Cc1ccc(NCc2oc(CS(C)(=O)=O)cc(=O)c2O)cc1 [Compound 6, 5-(4-(((3-hydroxy-6-((methylsulfonyl)methyl)-4-oxo-4H-pyran-2-yl)methyl)amino)phenyl)-N-methylpenta-2,4-diynamide] | – | > 32 | > 32 | > 32 | – | > 32 | – | > 32 | > 32 | > 32
N[C@@H]1CN(C(=O)c2ccc(C#CC#Cc3ccc(NCc4occc(=O)c4O)cc3)cc2)CC12CC2 [Compound 49] | 1 to 8 (≈ 2.09 to 16.7 µM) | 1 to 8 (≈ 2.09 to 16.7 µM) | < 1 | 1 to 8 (≈ 2.09 to 16.7 µM) | > 32 | > 32 | > 32 | – | – | –
O=C(NC1CC1)c1ccc(C#CC#Cc2ccc(NCc3occc(=O)c3O)cc2)cc1 [Compound 34] | 1 to 8 (≈ 2.36 to 18.8 µM) | 1 to 8 (≈ 2.36 to 18.8 µM) | < 1 | 1 to 8 (≈ 2.36 to 18.8 µM) | > 32 | > 32 | > 32 | – | – | –
O=c1ccoc(CNc2ccc(C#Cc3ccc(CN4CCOCC4)cc3)cc2)c1O [Compound 55] | 1 to 8 (≈ 2.4 to 19.2 µM) | 1 to 8 (≈ 2.4 to 19.2 µM) | 1 to 8 (≈ 2.4 to 19.2 µM) | 1 to 8 (≈ 2.4 to 19.2 µM) | > 32 | 8 to 32 (≈ 19.2 to 76.8 µM) | > 32 | – | – | –
O=C(NCc1cc(=O)c(O)co1)c1ccc(-c2ccccc2)cc1 [Compound 29] | > 32 | > 32 | > 32 | > 32 | > 32 | > 32 | > 32 | – | – | –
O=C(NCCO)c1ccc(C#CC#Cc2ccc(NCc3occc(=O)c3O)cc2)cc1 [Compound 44] | 1 to 8 (≈ 2.33 to 18.7 µM) | 1 to 8 (≈ 2.33 to 18.7 µM) | < 1 | < 1 | > 32 | 8 to 32 (≈ 18.7 to 74.7 µM) | > 32 | – | – | –
CNC(=O)c1ccc(-c2ccc(OCc3oc(CS(C)(=O)=O)cc(=O)c3O)cc2)cc1 [Compound 8, 4′-((3-hydroxy-6-((methylsulfonyl)methyl)-4-oxo-4H-pyran-2-yl)methoxy)-N-methyl-[1,1′-biphenyl]-4-carboxamide] | – | > 32 | > 32 | > 32 | – | > 32 | – | > 32 | > 32 | > 32
O=C(c1ccc(C#CC#Cc2ccc(NCc3occc(=O)c3O)cc2)cc1)N1CCN2CCCC2C1 (stereo not shown) [Compound 43] | 1 to 8 (≈ 2.03 to 16.2 µM) | 1 to 8 (≈ 2.03 to 16.2 µM) | < 1 | 1 to 8 (≈ 2.03 to 16.2 µM) | > 32 | 8 to 32 (≈ 16.2 to 64.8 µM) | > 32 | – | – | –
COC(=O)c1ccc(C#CC#Cc2ccc(NCc3occc(=O)c3O)cc2)cc1 [Compound 31] | > 32 | > 32 | 1 to 8 (≈ 2.5 to 20 µM) | > 32 | > 32 | > 32 | > 32 | – | – | –
O=C(O)c1ccc(C#Cc2ccc(NCc3occc(=O)c3O)cc2)cc1 [Compound 53] | > 32 | > 32 | 1 to 8 (≈ 2.77 to 22.1 µM) | > 32 | > 32 | > 32 | > 32 | – | – | –
CS(=O)(=O)Cc1cc(=O)c(O)c(CNc2ccc(C#CC#Cc3ccccc3)cc2)o1 [Compound 5, 2-((4-(4-phenylbuta-1,3-diynyl)phenylamino)methyl)-3-hydroxy-6-((methylsulfonyl)methyl)-4H-pyran-4-one] | – | 1 to 8 (≈ 2.31 to 18.5 µM) | 1 to 8 (≈ 2.31 to 18.5 µM) | 1 to 8 (≈ 2.31 to 18.5 µM) | – | > 32 | – | 8 to 32 (≈ 18.5 to 73.8 µM) | > 32 | > 32
O=C(c1ccc(C#Cc2ccc(NCc3occc(=O)c3O)cc2)cc1)N1CC(O)C1 [Compound 54] | > 32 | > 32 | 8 to 32 (≈ 19.2 to 76.8 µM) | > 32 | > 32 | > 32 | > 32 | – | – | –
COC1CN(C(=O)c2ccc(C#CC#Cc3ccc(NCc4occc(=O)c4O)cc3)cc2)C1 [Compound 51] | 1 to 8 (≈ 2.2 to 17.6 µM) | 1 to 8 (≈ 2.2 to 17.6 µM) | < 1 | 1 to 8 (≈ 2.2 to 17.6 µM) | > 32 | > 32 | > 32 | – | – | –
CN1CC2CN(C(=O)c3ccc(C#CC#Cc4ccc(NCc5occc(=O)c5O)cc4)cc3)CC2C1 (stereo not shown) [Compound 41] | 1 to 8 (≈ 2.03 to 16.2 µM) | 1 to 8 (≈ 2.03 to 16.2 µM) | < 1 | 1 to 8 (≈ 2.03 to 16.2 µM) | > 32 | 8 to 32 (≈ 16.2 to 64.8 µM) | > 32 | – | – | –
